Assay results published in ChEMBL document CHEMBL1201862, “PubChem BioAssay data set” (2004).
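Cultured in 96-well plates, cells were exposed to test compound for 48 hours across five concentrations. GI50 = concentration required for 50% inhibition of growth.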 Activity calls are given as the source filed them. No stated cut-off is given here; in the data, active = GI50 up to about 1.1 µM and inactive = higher.

Columns and labels:
Experiment in all cases: NCI anticancer screen, dose series, 48 h
A498 = system: A498
COLO 205 = system: COLO 205
EKVX = system: EKVX
HCT-15 = system: HCT-15
HOP-62 = system: HOP-62
K562 = system: K562
M14 = system: M14
MDA-MB-231 = system: MDA-MB-231
MDA-MB-435 = system: MDA-MB-435
NCI-H23 = system: NCI-H23
NCI-H460 = system: NCI-H460
OVCAR-3 = system: OVCAR-3
PC-3 = system: PC-3
SK-OV-3 = system: SK-OV-3
SNB-19 = system: SNB-19
SW-620 = system: SW-620
T47D = system: T47D
TK-10 = system: TK-10
U-251 = system: U-251
UACC-62 = system: UACC-62

Row | Compound | GI50 (A498) | GI50 (COLO 205) | GI50 (EKVX) | GI50 (HCT-15) | GI50 (HOP-62) | GI50 (K562) | GI50 (M14) | GI50 (MDA-MB-231) | GI50 (MDA-MB-435) | GI50 (NCI-H23) | GI50 (NCI-H460) | GI50 (OVCAR-3) | GI50 (PC-3) | GI50 (SK-OV-3) | GI50 (SNB-19) | GI50 (SW-620) | GI50 (T47D) | GI50 (TK-10) | GI50 (U-251) | GI50 (UACC-62)
1 | Fc1c(F)c(C(F)(F)F)c(F)c(F)c1N/N=C/c1cn(Cc2ccccc2)c2ccccc12 | 27.9 µM (inactive) | 13.5 µM (inactive) | 18.4 µM (inactive) | 25.2 µM | 2.24 µM (inactive) | 31 µM (inactive) | 18.2 µM (inactive) | 21 µM (inactive) | 22.1 µM (inactive) | 27.5 µM (inactive) | 12.1 µM (inactive) | 13.2 µM (inactive) | 27.4 µM (inactive) | 12.2 µM (inactive) | 30.1 µM (inactive) | 30.9 µM (inactive) | 23.6 µM (inactive) | 25.2 µM (inactive) | 34 µM (inactive) | 22.4 µM (inactive)
2 | Cn1c(=O)c2nc(CS(=O)(=O)Cc3nc4c(=O)n(C)c(=O)n(C)c4[nH]3)[nH]c2n(C)c1=O | > 100 µM (inactive) | > 100 µM (inactive) | > 100 µM (inactive) | > 100 µM | > 100 µM (inactive) | > 100 µM (inactive) | > 100 µM (inactive) | 40.6 µM (inactive) | > 100 µM (inactive) | > 100 µM (inactive) | > 100 µM (inactive) | > 100 µM (inactive) | > 100 µM (inactive) | > 100 µM (inactive) | > 100 µM (inactive) | > 100 µM (inactive) | > 100 µM (inactive) | > 100 µM (inactive) | 33.2 µM (inactive) | > 100 µM (inactive)
3 | Cc1cc(C)c(NC(=S)NC(=O)c2ccccc2)cc1C | > 100 µM (inactive) | > 100 µM (inactive) | > 100 µM (inactive) | 93.1 µM | > 100 µM (inactive) | 74 µM (inactive) | > 100 µM (inactive) | > 100 µM (inactive) | 52.8 µM (inactive) | > 100 µM (inactive) | > 100 µM (inactive) | > 100 µM (inactive) | 67.3 µM (inactive) | > 100 µM (inactive) | > 100 µM (inactive) | > 100 µM (inactive) | 55.7 µM (inactive) | > 100 µM (inactive) | 64.1 µM (inactive) | > 100 µM (inactive)
4 | C=[N+](CNC(=O)CNC(=O)C(Cc1ccc([N+](=O)[O-])cc1)NC(=O)OC(C)(C)C)C(=O)CNC(=O)C(Cc1ccc([N+](=O)[O-])cc1)NC(=O)OC(C)(C)C (stereo not given) | 30.7 µM (inactive) | 58.2 µM (inactive) | > 100 µM (inactive) | > 100 µM | > 100 µM (inactive) | 19 µM (inactive) | 28.1 µM (inactive) | 25.7 µM (inactive) | 26.2 µM (inactive) | 68.1 µM (inactive) | > 100 µM (inactive) | 50.1 µM (inactive) | 29.8 µM (inactive) | > 100 µM (inactive) | 37 µM (inactive) | 41.6 µM (inactive) | > 10 µM (inactive) | > 100 µM (inactive) | 39.4 µM (inactive) | 21.6 µM (inactive)
5 | CN(CCCNC(=O)c1cn(C)c2c1ccc1cc(Cl)ccc12)CCCNC(=O)c1cn(C)c2c1ccc1cc(Cl)ccc12 | 5.86 µM (inactive) | 1.47 µM (inactive) | 2.33 µM (inactive) | 1.78 µM | 1.65 µM (inactive) | 1.97 µM (inactive) | 1.85 µM (inactive) | 1.75 µM (inactive) | 1.71 µM (inactive) | 3.91 µM (inactive) | 1.56 µM (inactive) | 1.9 µM (inactive) | 1.78 µM (inactive) | 1.82 µM (inactive) | 2.39 µM (inactive) | 1.62 µM (inactive) | 1.8 µM (inactive) | 2.47 µM (inactive) | 1.71 µM (inactive) | 1.84 µM (inactive)
